Source: publication PMC7696940, “Effects of Rationally Designed Physico-Chemical Variants of the Peptide PuroA on Biocidal Activity towards Bacterial and Mammalian Cells” (International Journal of Molecular Sciences, 2020)
Values after ≈ are worked out from the molar mass of the structure shown. Where no end group is shown, it is not given here.

Key:
[1] = tested on: E. coli and S. aureus; assay: Salt tolerance (MICs under 0-150 mM NaCl, summary); format: cell-based, Escherichia coli; Staphylococcus aureus; set-up: key: Up to 50 mM: no effects on antibacterial activity up to 50 mM NaCl but increase in the MICs for E. coli and S. aureus at 100 mM NaCl; Intolerant: not resistant to salt effects even at 50 mM NaCl; Up to 150 mM: no effects on antibacterial activity up to 150 mM NaCl; settings: MICs for E. coli and S. aureus in MHB with 0, 50, 100 or 150 mM NaCl
Procedure: (§1) The activity of peptides was determined against the Gram-positive Staphylococcus aureus (ATCC 25923), and the Gram-negative Escherichia coli (ATCC 25922) and Pseudomonas aeruginosa (ATCC 9027) bacteria. Selected peptides were also tested against two clinical isolates of methicillin-resistant Staphylococcus aureus (MRSA), M173525 and M180920, kindly provided by Dr P. B. Ward (Microbiology Department, Austin and Repatriation Medical Centre, Heidelberg West, Victoria, Australia). The Minimum inhibitory concentration (MIC) of peptides was determined by the microtitre broth dilution method, as described in Phillips et al.. Briefly, bacteria were grown in Mueller-Hinton Broth (MHB) at 37 °C overnight with shaking (200 rpm). The cultures were adjusted to 0.5 McFarland turbidity standard (approximately 1 × 10^8 colony forming units (CFU)/mL), then diluted 1:100 in MHB (1 × 10^6 CFU/mL). A total of 75 μL of these suspensions were mixed with 25 μL of peptide solutions (final concentrations 250 to 0.5 μg/mL) and the microtitre plates incubated overnight at 37 °C. Positive growth controls (inoculum and MHB, with no peptide) and sterility controls (0.01% glacial acetic) were also included. Post-incubations, the absorbance of cultures at 595 nm was measured using a microplate reader (POLARstar Omega, Germany). […] To evaluate salt sensitivity of peptides up to physiological levels (150 mM NaCl), overnight cultures of S. aureus and E. coli adjusted to 0.5 McFarland turbidity standard were diluted 1:100 in MHB containing 0, 50, 100 or 150 mM NaCl, and the MICs of peptides determined as above. All tests were conducted in triplicate. The results are shown as the mode of values obtained.

[2] = tested on: porcine trypsin and proteinase K; assay: Proteases stability assay; format: in vitro ADME, porcine; Tritirachium album; settings: 1000 µg peptide with 50 µg protease (20:1 w/w), porcine trypsin or proteinase K, PBS pH 7.4, 37 °C, 3 h; read-out activity of supernatant on E. coli and S. aureus; triplicate
Procedure: The effect of two well-studied proteases, porcine trypsin and proteinase K from Tritirachium album, on the activity of peptides was investigated as per Carmona et al.. Briefly, 1000 µg of a peptide was incubated with 50 µg of a protease (20:1 w/w) at 37 °C for 3 h in phosphate buffered saline PBS (pH 7.4). The enzyme activity was then terminated by heating (70 °C, 5 min) and the samples centrifuged at 12,000× g. The activity of the supernatant on E. coli and S. aureus was tested as above, in triplicate.

[3] = tested on: HeLa cells; format: cell-based, human; settings: MTT, 24 h, peptide up to 250 µg/mL; concentration causing 50% cell growth inhibition; mean of triplicate assays
Procedure: (§2) Cytotoxicity to human cervical carcinoma HeLa cells and mouse fibroblastic NIH-3T3 cells was determined using the MTT assay as per Scudiero et al. with minor modifications. The cells were maintained in Dulbecco’s Modified Eagle Medium (DMEM) with 10% foetal bovine serum (FBS) and 1% penicillin G in a humidified incubator (Heraeus Hera Cell incubator) at 37 °C with 5% CO2. They were seeded in 96-well microtiter plates at 1 × 10^4 cells/well and allowed to adhere for 24 h in the incubator. The medium was removed, and adherent cells were washed with PBS. Fresh media containing serially diluted peptides in PBS (final concentrations 4 to 250 µg/mL) were added and the cells incubated for 24 h. Cells without peptides were used as negative controls. Following incubations, the medium was removed, and adherent cells were washed with PBS. 150 µL of MTT (diluted to 0.33 mg/mL in DMEM) and the plates incubated for 3 h. The precipitated formazan was dissolved in 100 µL of DMSO and its absorbance measured at 570 nm. Cell viability was determined as: (OD570 nm peptide treated cells/(OD570 nm untreated cells) × 100. Positive cytotoxicity was defined as peptide concentration that causes 50% growth inhibition in a cell line (IC50). All tests were carried out in triplicate.

[4] = tested on: S. aureus ATCC25923; format: cell-based, Staphylococcus aureus; settings: MHB; for MIC S. aureus, No NaCl: 0 mM NaCl; for MIC S. aureus, No NaCl / MIC S. aureus, With 50mM NaCl / MIC S. aureus, With 100mM NaCl / MIC S. aureus, With 150mM NaCl: triplicate, mode; for MIC S. aureus ATCC25923: 37 °C overnight, A595, mode of three independent experiments
Procedure: as §1

[5] = tested on: C. albicans FRR 5580; format: cell-based, Candida albicans; settings: PDB, overnight; mode of three independent experiments
Procedure: The assay was carried out as per Alfred et al.. Candida albicans (FRR 5580) was grown in potato dextrose broth (PDB; Difco-BD, Bergen County, NJ, USA) overnight at 30 °C with shaking (200 rpm) until exponential phase, then adjusted to 0.5 McFarland turbidity standard (approximately 1 × 10^6 cells/mL) and diluted 1:200 with PDB to 0.5 − 2 × 10^3 cells/mL. Peptides in 25 μL volumes were mixed with 75 μL of the yeast suspensions. The controls were included as above. The plates were incubated overnight and absorbance was recorded. All the tests were conducted in triplicate.

[6] = tested on: NIH-3T3 cells; assay: Cytotoxicity, MTT assay; format: cell-based, mouse; settings: 24 h; for IC50 NIH-3T3: peptide up to 250 µg/mL, concentration causing 50% cell growth inhibition, mean of triplicate assays
Procedure: as §2

[7] = tested on: P. aeruginosa ATCC9027; format: cell-based, Pseudomonas aeruginosa; settings: MHB, 37 °C overnight, A595; mode of three independent experiments
Procedure: as §1

[8] = tested on: E. coli ATCC25922; format: cell-based, Escherichia coli; settings: MHB; for MIC E. coli, No NaCl: 0 mM NaCl; for MIC E. coli, No NaCl / MIC E. coli, With 50mM NaCl / MIC E. coli, With 100mM NaCl / MIC E. coli, With 150mM NaCl: triplicate, mode; for MIC E. coli ATCC25922: 37 °C overnight, A595, mode of three independent experiments
Procedure: as §1

[9] = tested on: pBlueScript SK+ plasmid DNA; assay: In vitro DNA-binding assay (gel retardation); settings: 100 ng pBlueScript SK+, peptide 8-500 µg/mL, 1 h room temperature, 1% agarose
Procedure: The ability of peptides to bind to purified DNA (indicative of in vivo DNA binding potential) was tested by the modified gel retardation assay developed by Alfred et al.. The DNA of pBlueScript SK+ (100 ng) was incubated with peptides (to final concentrations of 8, 16, 32, 64, 125, 250 or 500 µg/mL) in 15 µL volumes made with sterile MilliQ water, the held at room temperature for 1h. Loading dye was added to each sample and the samples electrophoresed on 1% agarose gels. The gels were then immersed in ethidium bromide ([…]) then visualized and imaged

Row | Compound | Salt Tolerance [1] | Protease Stability [2] | IC50 HeLa [3] [µg/mL] | MIC S. aureus, No NaCl [4] [µg/mL] | MIC S. aureus, With 50mM NaCl [4] [µg/mL] | MIC S. aureus, With 100mM NaCl [4] [µg/mL] | MIC S. aureus, With 150mM NaCl [4] [µg/mL] | MIC S. aureus ATCC25923 [4] [µg/mL] | MIC C. albicans FRR 5580 [5] [µg/mL] | IC50 NIH-3T3 [6] [µg/mL] | Cytotoxicity to NIH-3T3 mouse fibroblasts (in words) ([6]; up to 250 µg/mL) | MIC P. aeruginosa ATCC9027 [7] [µg/mL] | MIC E. coli, No NaCl [8] [µg/mL] | MIC E. coli, With 50mM NaCl [8] [µg/mL] | MIC E. coli, With 100mM NaCl [8] [µg/mL] | MIC E. coli, With 150mM NaCl [8] [µg/mL] | MIC E. coli ATCC25922 [8] [µg/mL] | Binding to DNA in vitro (concentration inhibiting plasmid migration) [9] [µg/mL]
1 | CC(C)[C@H](NC(=O)[C@@H]1CCCN1C(=O)[C@@H](N)Cc1ccccc1)C(=O)N[C@H](C(=O)N[C@@H](Cc1c[nH]c2ccccc12)C(=O)N[C@@H](CCCNC(=N)N)C(=O)N[C@@H](Cc1c[nH]c2ccccc12)C(=O)N[C@@H](Cc1c[nH]c2ccccc12)C(=O)N[C@@H](CCCCN)C(=O)N[C@@H](Cc1c[nH]c2ccccc12)C(=O)N[C@@H](Cc1c[nH]c2ccccc12)C(=O)N[C@@H](CCCCN)C(=O)NCC(=O)NCCCC[C@@H](NC(=O)CNC(=O)[C@H](CCCCN)NC(=O)[C@H](Cc1c[nH]c2ccccc12)NC(=O)[C@H](Cc1c[nH]c2ccccc12)NC(=O)[C@H](CCCCN)NC(=O)[C@H](Cc1c[nH]c2ccccc12)NC(=O)[C@H](Cc1c[nH]c2ccccc12)NC(=O)[C@H](CCCNC(=N)N)NC(=O)[C@H](Cc1c[nH]c2ccccc12)NC(=O)[C@@H](NC(=O)[C@@H](NC(=O)[C@@H]1CCCN1C(=O)[C@@H](N)Cc1ccccc1)C(C)C)[C@@H](C)O)C(N)=O)[C@@H](C)O [Di-PuroA] | Intolerant | Unstable |  |  |  |  |  |  |  |  |  |  |  |  |  |  |  | 
2 | CC(C)[C@H](NC(=O)[C@@H]1CCCN1C(=O)[C@@H](N)Cc1ccccc1)C(=O)N[C@H](C(=O)N[C@@H](Cc1c[nH]c2ccccc12)C(=O)N[C@@H](CCCNC(=N)N)C(=O)N[C@@H](Cc1c[nH]c2ccccc12)C(=O)N[C@@H](Cc1c[nH]c2ccccc12)C(=O)N[C@@H](CCCCN)C(=O)N[C@@H](Cc1c[nH]c2ccccc12)C(=O)N[C@@H](Cc1c[nH]c2ccccc12)C(=O)N[C@@H](CCCCN)C(=O)NCC(=O)O)[C@@H](C)O [PuroA-OH] | Intolerant | Unstable | >250 | 64 (≈ 34.3 µM) | 125 (≈ 67.1 µM) | > 250 | > 250 | 64 (≈ 34.3 µM) | 250 (≈ 134 µM) | >250 | no cytotoxicity | 125 (≈ 67.1 µM) | 32 (≈ 17.2 µM) | 64 (≈ 34.3 µM) | > 250 | > 250 | 32 (≈ 17.2 µM) | 
3 | RKRWWRWWKWWKR-NH2 [dP1, diastereomeric counterpart of P1] | Up to 150 mM |  | 125 | 16 | 16 | 16 | 16 |  | 64 | 250 |  | 16 | 16 | 16 | 16 | 16 |  | 
4 | RWWKWW-NH2 [Peptide R6] | Intolerant | Unstable | >250 | 16 | 32 | 250 | > 250 | 16 | 64 | 250 |  | 32 | 32 | 64 | 250 | > 250 | 32 | 
5 | RWWKWWK-NH2 [Peptide R7] | Intolerant | Unstable | >250 | 16 | 32 | 250 | > 250 | 16 | 64 | 250 |  | 32 | 8 | 32 | 250 | > 250 | 8 | 
6 | WRWWKWW-NH2 [dW7, diastereomeric counterpart of W7] | Up to 150 mM |  | 125 | 8 | 8 | 8 | 8 | 8 | 64 | >250 |  | 16 | 8 | 8 | 8 | 8 | 8 | ≥ 32
7 | WWRWWKWW-NH2 [dWW, diastereomeric counterpart of WW] | Up to 150 mM |  | 125 | 8 | 8 | 8 | 8 | 8 | 64 | 250 |  | 32 | 8 | 8 | 8 | 8 | 8 | 
